Here are results for 1 compound from PMC8161485 (ACS Central Science, 2021).

The assay relates to heme oxygenase 1 (HO-1). In words: Induction of heme oxygenase 1 in primary AML specimens. The format is cell-based, human. Particulars: compared to vehicle-only control.

Entries after “also recorded” stand apart in the source; their conditions may differ.

Take `C=C1C(=O)O[C@H]2[C@H]1CC/C(C)=C/CC[C@@]1(C)O[C@@H]21` [PTL, parthenolide]: the “induction of heme oxygenase 1 (HO-1)” value is given as “Dose-dependent induction; also recorded: comparatively larger induction of HO-1 at lower doses”.
